Assay results from publication PMC8228234, “Identifying a Novel Bile Salt Hydrolase from the Keystone Gut Bacterium Christensenella minuta” (Microorganisms, 2021).

Biological target: T1, Cm33407BSH (Christensenella minuta, UniProt A0A8F5DVT9)
T1 construct: gene BSH
Assay: ninhydrin assay of released amino acid
Format: biochemical
Conditions: citrate buffer pH 6.0, 37 °C, 10 mM DTT, 5 mM substrate

T1 sequence (A0A8F5DVT9 entry or part of it): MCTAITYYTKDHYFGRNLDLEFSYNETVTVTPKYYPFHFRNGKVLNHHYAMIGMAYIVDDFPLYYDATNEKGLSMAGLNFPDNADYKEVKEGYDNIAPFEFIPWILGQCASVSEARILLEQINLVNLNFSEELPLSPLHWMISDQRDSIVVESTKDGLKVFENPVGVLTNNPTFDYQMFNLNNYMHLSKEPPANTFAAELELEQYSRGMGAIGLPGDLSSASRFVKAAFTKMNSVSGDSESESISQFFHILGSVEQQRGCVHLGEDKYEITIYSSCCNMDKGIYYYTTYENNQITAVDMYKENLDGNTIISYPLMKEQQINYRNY

| SMILES | specific activity |
| --- | --- |
| C[C@H](CCC(=O)NCC(=O)O)[C@H]1CC[C@H]2[C@@H]3[C@H](O)C[C@@H]4C[C@H](O)CC[C@]4(C)[C@H]3CC[C@]12C [GCDCA] | displayed high specific activity values for the glycine conjugates GCA and GCDCA |
| C[C@H](CCC(=O)NCC(=O)O)[C@H]1CC[C@H]2[C@@H]3[C@H](O)C[C@@H]4C[C@H](O)CC[C@]4(C)[C@H]3C[C@H](O)[C@]12C [GCA] | displayed high specific activity values for the glycine conjugates GCA and GCDCA |
